Here are results for two molecules from patent publication US20210254056A1, “IDENTIFICATION AND TARGETED MODULATION OF GENE SIGNALING NETWORKS” (CAMP4 THERAPEUTICS CORPORATION, priority 2017, published 2021).

Entries after “also recorded” stand apart in the source; their conditions may differ.

Data set [1] has as its system hepatocytes.
In data set [2] the test system is hepatocytes. This is another data set of the same source.
In data set [3] the test system is hepatocytes. In words: qRT-PCR validation of the Example 12 RNA-seq results.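 Further: Compound-treated versus DMSO control, target Ct normalized to GAPDH or β-actin reference (ΔΔCt method), positive values mean higher expression than DMSO.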
Data set [4] deals with hepatocytes. The data set is described as follows: RNA-seq of hepatocytes stimulated with the compounds of Table 68. The conditions noted are these: hepatocytes, RNA-seq.
The test system of data set [5] is primary human hepatocytes. In words: RNA-seq of primary human hepatocytes treated with 39 small molecules (pilot and validation). The conditions noted are these: for Number (#) of genes having significantly changed expression: pilot RNA-seq study of Example 2, significance: FPKM≥0.5, log 2(fold change)≥1, q-value ≤0.05.
The subject of data set [6] is SLC37A4 gene. In words: RNA-seq gene expression after compound treatment, insulated neighborhood containing SLC37A4. It counts as cell-based, human. To be noted: FIG. 8; gene implicated in glycogen storage disease 1b.
Data set [7] deals with FKBP5. The data set is described as follows: RNA-seq gene expression after compound treatment, insulated neighborhood including FKBP5. It counts as cell-based, human. The conditions noted are these: FIG. 11A; gene implicated in immunosuppression. The source says:
(§1) In certain embodiments, hepatocytes are used to map a healthy cell population. The liver is a source of many known genetic disease and provides homogeneous primary tissue with high availability. Additionally, most toxicology is done in the liver, which provides drug toxicity insights. In some embodiments, different stimuli, such as those described herein, are contacted with a cell to induce various GSC responses in the hepatocytes. For example, small molecules may be administered to identify liver disease genes whose expression is modulated by the small molecules. These responses provide an understanding of GSCs in liver cells: genomic positions, protein composition, and genome architecture. Alternatively, blood or muscle tissue may be mapped as a healthy population, as a disease model, or as primary disease cells. About 20 million cells are generally needed for accurate ChIP (chromatin immunoprecipitation) analysis. Therefore, in some embodiments, erythroid cells may be used to develop a conditionally immortalized cell system to produce a sufficient biomass for ChIP analysis of a cell with a disease phenotype.

For data set [8], the system named is PCSK9 gene. In words: RNA-seq gene expression after compound treatment, PCSK9. It counts as cell-based, human. The conditions noted are these: FIG. 11C and FIG. 13; gene implicated in hypercholesterolemia.
Description: as §1

In the case of `CO[C@H]1/C=C/O[C@@]2(C)Oc3c(C)c(O)c4c(O)c(c(/C=N/N5CCN(C)CC5)c(O)c4c3C2=O)NC(=O)/C(C)=C\C=C\[C@H](C)[C@H](O)[C@@H](C)[C@@H](O)[C@@H](C)[C@H](OC(C)=O)[C@@H]1C` [MT-901, Rifampicin], in data set [1], the “DESeq log2fc, CYP7A1” value is −1.44. In data set [2], the “qRT-PCR log2fc, CYP2C19” value was −0.37. Also, in data set [3] (log 2 fold change in AGTR1 gene expression), the “qRT-PCR log2fc, AGTR1” value is given as −0.37. Besides, the “qRT-PCR log2fc, ALAS1” value in data set [3] (log 2 fold change in ALAS1 gene expression) turned out to be 0.3. The “qRT-PCR log2fc, CA12” value in data set [3] (log 2 fold change in CA12 gene expression) is reported as 0.53. The “qRT-PCR log2fc, ENO3” value in data set [3] (log 2 fold change in ENO3 gene expression) is recorded as −0.06. Besides, in data set [3] (log 2 fold change in POR gene expression), the “qRT-PCR log2fc, POR” value is 0.16. In addition, the “qRT-PCR log2fc, SLC6A6” value in data set [3] (log 2 fold change in SLC6A6 gene expression) was −0.14. For the same molecule, the “qRT-PCR log2fc, SLC6A20” value in data set [3] (log 2 fold change in SLC6A20 gene expression) is −0.17. Also, in data set [3] (log 2 fold change in SLC51B gene expression), the “qRT-PCR log2fc, SLC51B” value was determined as 1.72. The “qRT-PCR log2fc, VLDLR” value in data set [3] (log 2 fold change in VLDLR gene expression) is recorded as 0.63. Besides, in data set [4] (log 2 fold change in AGTR1 gene expression, Cuffdiff), the “Cuffdiff log2fc, AGTR1” value was determined as 1.1. The “DESeq log2fc, AGTR1” value in data set [4] (log 2 fold change in AGTR1 gene expression, DESeq) is recorded as 1.18. Further, the “Cuffdiff log2fc, ALAS1” value in data set [4] (log 2 fold change in ALAS1 gene expression, Cuffdiff) came out at 1.45. Moreover, the “DESeq log2fc, ALAS1” value in data set [4] (log 2 fold change in ALAS1 gene expression, DESeq) was 1.47. Further, the “Cuffdiff log2fc, CA12” value in data set [4] (log 2 fold change in CA12 gene expression, Cuffdiff) came to 1.53. For the same molecule, the “DESeq log2fc, CA12” value in data set [4] (log 2 fold change in CA12 gene expression, DESeq) was found to be 1.56. Moreover, in data set [4] (log 2 fold change in CYP2C19 gene expression, DESeq), the “DESeq log2fc, CYP2C19” value is reported as 2.3. Moreover, the “Cuffdiff log2fc, ENO3” value in data set [4] (log 2 fold change in ENO3 gene expression, Cuffdiff) was −1.13. Further, in data set [4] (log 2 fold change in ENO3 gene expression, DESeq), the “DESeq log2fc, ENO3” value was −0.97. For the same molecule, the “Cuffdiff log2fc, POR” value in data set [4] (log 2 fold change in POR gene expression, Cuffdiff) amounted to 1.13. In data set [4] (log 2 fold change in POR gene expression, DESeq), the “DESeq log2fc, POR” value is reported as 1.17. Moreover, in data set [4] (log 2 fold change in SLC6A6 gene expression, Cuffdiff), the “Cuffdiff log2fc, SLC6A6” value was 1.28. Besides, the “DESeq log2fc, SLC6A6” value in data set [4] (log 2 fold change in SLC6A6 gene expression, DESeq) is reported as 1.39. In addition, in data set [4] (log 2 fold change in SLC6A20 gene expression, Cuffdiff), the “Cuffdiff log2fc, SLC6A20” value came out at 1.03. Further, the “DESeq log2fc, SLC6A20” value in data set [4] (log 2 fold change in SLC6A20 gene expression, DESeq) is listed as 1.06. Moreover, the “Cuffdiff log2fc, SLC51B” value in data set [4] (log 2 fold change in SLC51B gene expression, Cuffdiff) is 1.02. For the same molecule, in data set [4] (log 2 fold change in SLC51B gene expression, DESeq), the “DESeq log2fc, SLC51B” value was 1.19. In data set [4] (log 2 fold change in VLDLR gene expression, Cuffdiff), the “Cuffdiff log2fc, VLDLR” value is on record as 1.69. In addition, the “DESeq log2fc, VLDLR” value in data set [4] (log 2 fold change in VLDLR gene expression, DESeq) is listed as 1.71. The “Number (#) of genes having significantly changed expression” value in data set [5] is 90.

Turning to `C[C@]12C=CC(=O)C=C1CC[C@@H]1[C@@H]2C(=O)C[C@@]2(C)[C@H]1CC[C@]2(O)C(=O)CO` [prednisone], in data set [6], the “expression of the SLC37A4 gene (RNA-seq)” value is listed as “upregulation”. Moreover, the “expression of FKBP5 (RNA-seq)” value in data set [7] was “upregulates”. Also, in data set [8], the “expression of the PCSK9 gene (RNA-seq)” value is “modulation”. Further, the “significant modulation of gene expression” value in data set [5] (RNA-seq, p-value≤0.05, primary human hepatocytes, the modulated genes are listed in the block) is “significantly (p-value≤0.05) modulate”. For the same molecule, in data set [5] (RNA-seq, treated cells compared to vehicle control, gene named in the value), the “gene upregulated by the compound” value was “upregulate the SLC37A4 gene; also recorded: SLC37A4 was significantly upregulated; also recorded: upregulate FKPP5”. The “Number (#) of genes having significantly changed expression” value in data set [5] is recorded as 247.
